How the values were obtained:
PIK3CA = target: T1, PIK3CA (Homo sapiens, UniProt P42336); experiment: Kinobeads competition binding: PIK3CA; conditions: target PIK3CA;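 further: share of all-target engagement taken by this protein at its own Kdapp concentration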
T1 construct: a mixture of lysates from five cancer cell lines; endogenous in cells
From the text: Supplement 41589_2023_1459_MOESM4_ESM.xlsx, sheet "CATDS matrix" | column: PIK3CA

DAPK3 = target: T2, DAPK3 (Homo sapiens, UniProt O43293); experiment: Kinobeads competition binding: DAPK3; conditions: target DAPK3;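 further: share of all-target engagement taken by this protein at its own Kdapp concentration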
T2 construct: endogenous in cells

PAK6 = target: T3, PAK6 (Homo sapiens, UniProt Q9NQU5); experiment: Kinobeads competition binding: PAK6; conditions: target PAK6
T3 construct: a mixture of lysates from five cancer cell lines; endogenous in cells

JAK2 = experiment: Kinobeads competition binding: JAK2; set-up: species or system human; conditions: target JAK2;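 further: target engagement share of this target among all targets at its Kdapp concentration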
PIK3CD = target: T4, PIK3CD (Homo sapiens, UniProt O00329); experiment: Kinobeads competition binding: PIK3CD; conditions: target PIK3CD
T4 construct: a mixture of lysates from five cancer cell lines; endogenous in cells

BCR = target: T5, BCR (Homo sapiens, UniProt P00519+P11274); experiment: Kinobeads competition binding: BCR; conditions: target BCR
T5 construct: endogenous in cells
From the text: Supplement 41589_2023_1459_MOESM4_ESM.xlsx, sheet "CATDS matrix" | column: BCR

CDK6 = target: T6, CDK6 (Homo sapiens, UniProt Q00534); experiment: Kinobeads competition binding: CDK6; conditions: target CDK6
T6 construct: endogenous in cells

NEK9 = experiment: Kinobeads competition binding: NEK9; set-up: species or system human; conditions: target NEK9
PIM2 = target: T7, PIM2 (Homo sapiens, UniProt Q9P1W9); experiment: Kinobeads competition binding: PIM2; conditions: target PIM2
T7 construct: a mixture of lysates from five cancer cell lines; endogenous in cells
From the text: Supplement 41589_2023_1459_MOESM4_ESM.xlsx, sheet "CATDS matrix" | column: PIM2

IKBKE = target: T8, IKBKE (Homo sapiens, UniProt Q14164); experiment: Kinobeads competition binding: IKBKE; conditions: target IKBKE
T8 construct: endogenous in cells
T8 sequence (Q14164 1-716): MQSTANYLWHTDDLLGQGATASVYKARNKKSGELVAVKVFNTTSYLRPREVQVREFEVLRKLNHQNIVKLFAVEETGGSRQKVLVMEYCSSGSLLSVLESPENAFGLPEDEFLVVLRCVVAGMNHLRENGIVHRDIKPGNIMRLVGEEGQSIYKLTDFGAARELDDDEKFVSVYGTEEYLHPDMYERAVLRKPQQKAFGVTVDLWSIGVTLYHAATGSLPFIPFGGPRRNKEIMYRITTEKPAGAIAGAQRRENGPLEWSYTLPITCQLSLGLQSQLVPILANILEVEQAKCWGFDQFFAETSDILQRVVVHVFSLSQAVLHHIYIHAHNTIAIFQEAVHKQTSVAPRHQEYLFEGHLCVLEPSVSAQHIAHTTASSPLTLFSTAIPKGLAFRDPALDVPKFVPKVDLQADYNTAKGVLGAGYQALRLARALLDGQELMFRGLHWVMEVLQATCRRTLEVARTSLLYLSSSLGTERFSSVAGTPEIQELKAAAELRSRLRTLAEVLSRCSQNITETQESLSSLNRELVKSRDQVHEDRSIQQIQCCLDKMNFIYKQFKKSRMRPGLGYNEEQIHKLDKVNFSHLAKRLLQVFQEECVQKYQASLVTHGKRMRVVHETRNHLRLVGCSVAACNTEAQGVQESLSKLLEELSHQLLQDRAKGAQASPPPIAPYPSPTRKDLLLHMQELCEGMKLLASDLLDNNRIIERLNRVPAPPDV

PKM = experiment: Kinobeads competition binding: PKM; set-up: species or system human; conditions: target PKM
ADCK3 = ADCK3 (Homo sapiens, UniProt Q8NI60); experiment: Kinobeads competition binding: ADCK3; set-up: endogenous in cells; conditions: target ADCK3
MAP3K2 = experiment: Kinobeads competition binding: MAP3K2; set-up: species or system human; conditions: target MAP3K2
EPHB2 = target: T9, EPHB2 (Homo sapiens, UniProt P29323); experiment: Kinobeads competition binding: EPHB2; conditions: target EPHB2;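 further: target engagement share of this target among all targets at its Kdapp concentration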
T9 construct: endogenous in cells
T9 sequence (P29323 19-1055): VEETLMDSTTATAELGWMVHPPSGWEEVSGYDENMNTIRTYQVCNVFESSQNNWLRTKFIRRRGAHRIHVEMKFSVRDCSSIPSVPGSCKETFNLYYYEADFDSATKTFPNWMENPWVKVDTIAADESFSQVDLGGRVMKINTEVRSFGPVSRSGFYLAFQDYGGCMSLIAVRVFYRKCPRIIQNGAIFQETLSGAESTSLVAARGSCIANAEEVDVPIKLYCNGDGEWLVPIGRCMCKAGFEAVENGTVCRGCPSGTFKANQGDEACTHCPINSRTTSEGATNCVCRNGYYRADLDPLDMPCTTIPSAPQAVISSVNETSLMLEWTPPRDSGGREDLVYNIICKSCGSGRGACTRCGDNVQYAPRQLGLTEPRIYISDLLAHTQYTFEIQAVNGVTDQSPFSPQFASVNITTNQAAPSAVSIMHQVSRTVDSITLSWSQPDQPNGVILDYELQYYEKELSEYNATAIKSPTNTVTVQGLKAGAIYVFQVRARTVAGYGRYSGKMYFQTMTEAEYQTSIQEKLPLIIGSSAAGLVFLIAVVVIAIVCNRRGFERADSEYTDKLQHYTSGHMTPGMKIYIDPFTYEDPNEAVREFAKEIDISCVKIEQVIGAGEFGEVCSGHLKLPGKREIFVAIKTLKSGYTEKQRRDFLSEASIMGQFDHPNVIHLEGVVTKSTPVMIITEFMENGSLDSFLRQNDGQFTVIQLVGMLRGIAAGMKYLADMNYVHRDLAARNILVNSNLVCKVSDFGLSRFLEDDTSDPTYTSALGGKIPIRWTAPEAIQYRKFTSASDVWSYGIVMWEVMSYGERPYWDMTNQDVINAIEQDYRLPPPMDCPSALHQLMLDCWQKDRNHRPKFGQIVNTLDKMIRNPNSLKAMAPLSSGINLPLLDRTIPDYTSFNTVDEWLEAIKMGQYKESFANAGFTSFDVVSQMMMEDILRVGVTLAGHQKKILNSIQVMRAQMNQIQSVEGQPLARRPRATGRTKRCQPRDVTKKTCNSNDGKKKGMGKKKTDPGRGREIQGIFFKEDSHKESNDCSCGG
From the text: Supplement 41589_2023_1459_MOESM4_ESM.xlsx, sheet "CATDS matrix" | column: EPHB2

IRAK4 = experiment: Kinobeads competition binding: IRAK4; set-up: species or system human; conditions: target IRAK4
PAK4 = target: T10, PAK4 (Homo sapiens, UniProt O96013); experiment: Kinobeads competition binding: PAK4; conditions: target PAK4
T10 construct: a mixture of lysates from five cancer cell lines; endogenous in cells
From the text: Supplement 41589_2023_1459_MOESM4_ESM.xlsx, sheet "CATDS matrix" | column: PAK4

T7 sequence (Q9P1W9 whole entry): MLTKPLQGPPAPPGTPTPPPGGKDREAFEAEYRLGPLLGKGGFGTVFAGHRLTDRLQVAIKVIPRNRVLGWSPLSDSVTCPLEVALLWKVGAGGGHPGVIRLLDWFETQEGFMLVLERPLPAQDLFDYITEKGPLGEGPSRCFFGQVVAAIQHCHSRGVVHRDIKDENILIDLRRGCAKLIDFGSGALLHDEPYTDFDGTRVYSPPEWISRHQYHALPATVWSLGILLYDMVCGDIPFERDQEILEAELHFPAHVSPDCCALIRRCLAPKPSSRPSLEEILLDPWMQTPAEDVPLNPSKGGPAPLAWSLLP
Sequence of ADCK3 (Q8NI60 163-647): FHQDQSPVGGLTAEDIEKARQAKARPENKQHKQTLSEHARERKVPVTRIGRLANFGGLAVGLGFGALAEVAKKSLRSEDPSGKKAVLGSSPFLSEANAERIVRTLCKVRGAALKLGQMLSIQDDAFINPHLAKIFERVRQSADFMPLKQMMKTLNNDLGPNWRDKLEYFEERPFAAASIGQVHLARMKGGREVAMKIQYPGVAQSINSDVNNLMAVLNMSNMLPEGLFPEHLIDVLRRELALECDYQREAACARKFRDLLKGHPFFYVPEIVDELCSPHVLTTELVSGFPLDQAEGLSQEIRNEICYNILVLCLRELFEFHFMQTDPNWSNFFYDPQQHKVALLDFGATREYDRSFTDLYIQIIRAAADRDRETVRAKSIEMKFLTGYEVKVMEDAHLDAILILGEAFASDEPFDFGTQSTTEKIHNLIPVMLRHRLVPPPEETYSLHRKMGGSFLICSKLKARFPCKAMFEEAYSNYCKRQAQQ
T6 sequence (Q00534 whole entry): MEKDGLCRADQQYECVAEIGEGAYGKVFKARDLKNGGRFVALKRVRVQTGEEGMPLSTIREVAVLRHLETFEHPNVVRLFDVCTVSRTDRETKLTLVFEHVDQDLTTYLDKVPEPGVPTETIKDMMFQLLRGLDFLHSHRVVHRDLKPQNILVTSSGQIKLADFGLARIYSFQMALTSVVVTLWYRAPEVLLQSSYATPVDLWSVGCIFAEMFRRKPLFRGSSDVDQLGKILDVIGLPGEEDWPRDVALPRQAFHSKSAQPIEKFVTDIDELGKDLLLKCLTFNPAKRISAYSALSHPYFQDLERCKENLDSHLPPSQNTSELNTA
T4 sequence (O00329 whole entry): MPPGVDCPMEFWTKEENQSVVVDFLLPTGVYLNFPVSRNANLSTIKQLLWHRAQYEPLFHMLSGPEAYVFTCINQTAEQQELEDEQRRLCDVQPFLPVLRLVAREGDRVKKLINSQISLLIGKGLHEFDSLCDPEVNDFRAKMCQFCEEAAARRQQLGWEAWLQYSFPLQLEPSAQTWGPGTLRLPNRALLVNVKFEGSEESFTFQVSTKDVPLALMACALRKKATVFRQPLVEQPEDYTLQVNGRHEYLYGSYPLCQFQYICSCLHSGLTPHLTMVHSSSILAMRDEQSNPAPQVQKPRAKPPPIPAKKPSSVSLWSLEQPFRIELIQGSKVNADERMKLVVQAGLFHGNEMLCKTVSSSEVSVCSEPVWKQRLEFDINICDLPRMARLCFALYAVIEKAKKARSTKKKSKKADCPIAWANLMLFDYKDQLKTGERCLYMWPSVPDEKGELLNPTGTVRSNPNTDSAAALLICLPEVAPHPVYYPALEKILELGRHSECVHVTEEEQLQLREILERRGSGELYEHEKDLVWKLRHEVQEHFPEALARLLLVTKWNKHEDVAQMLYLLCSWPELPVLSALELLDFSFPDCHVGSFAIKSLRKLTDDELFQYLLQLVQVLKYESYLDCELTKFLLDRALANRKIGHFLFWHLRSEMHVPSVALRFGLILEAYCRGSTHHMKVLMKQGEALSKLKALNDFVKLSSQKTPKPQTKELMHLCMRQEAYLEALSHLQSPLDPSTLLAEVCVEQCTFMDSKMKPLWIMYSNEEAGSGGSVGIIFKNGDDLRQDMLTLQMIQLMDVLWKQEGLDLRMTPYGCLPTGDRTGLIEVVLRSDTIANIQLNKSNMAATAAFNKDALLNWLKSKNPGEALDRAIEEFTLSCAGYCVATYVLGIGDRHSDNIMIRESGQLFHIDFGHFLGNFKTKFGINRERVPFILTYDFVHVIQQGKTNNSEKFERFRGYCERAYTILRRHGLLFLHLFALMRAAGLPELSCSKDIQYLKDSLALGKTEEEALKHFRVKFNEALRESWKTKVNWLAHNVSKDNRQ
T4 sequence (P27986 whole entry partner): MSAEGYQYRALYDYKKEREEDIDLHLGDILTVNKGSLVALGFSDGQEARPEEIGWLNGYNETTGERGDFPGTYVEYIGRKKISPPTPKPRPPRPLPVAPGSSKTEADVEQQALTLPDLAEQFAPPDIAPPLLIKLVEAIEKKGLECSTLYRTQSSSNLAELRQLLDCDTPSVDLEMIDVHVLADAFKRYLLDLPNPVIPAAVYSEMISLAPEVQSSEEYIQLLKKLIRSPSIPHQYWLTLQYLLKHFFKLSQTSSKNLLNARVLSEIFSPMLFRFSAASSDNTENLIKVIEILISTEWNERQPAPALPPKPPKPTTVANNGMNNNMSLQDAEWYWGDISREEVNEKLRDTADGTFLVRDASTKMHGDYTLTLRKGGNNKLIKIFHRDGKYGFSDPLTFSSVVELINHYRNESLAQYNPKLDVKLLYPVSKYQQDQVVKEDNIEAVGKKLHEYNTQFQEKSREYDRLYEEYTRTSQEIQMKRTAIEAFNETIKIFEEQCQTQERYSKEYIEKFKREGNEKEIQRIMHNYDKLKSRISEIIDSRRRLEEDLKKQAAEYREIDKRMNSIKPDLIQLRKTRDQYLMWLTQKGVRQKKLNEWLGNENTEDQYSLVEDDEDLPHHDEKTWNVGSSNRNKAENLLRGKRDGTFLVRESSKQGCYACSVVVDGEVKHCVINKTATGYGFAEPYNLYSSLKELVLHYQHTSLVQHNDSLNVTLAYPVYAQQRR
T5 sequence (P11274+P00519 fused): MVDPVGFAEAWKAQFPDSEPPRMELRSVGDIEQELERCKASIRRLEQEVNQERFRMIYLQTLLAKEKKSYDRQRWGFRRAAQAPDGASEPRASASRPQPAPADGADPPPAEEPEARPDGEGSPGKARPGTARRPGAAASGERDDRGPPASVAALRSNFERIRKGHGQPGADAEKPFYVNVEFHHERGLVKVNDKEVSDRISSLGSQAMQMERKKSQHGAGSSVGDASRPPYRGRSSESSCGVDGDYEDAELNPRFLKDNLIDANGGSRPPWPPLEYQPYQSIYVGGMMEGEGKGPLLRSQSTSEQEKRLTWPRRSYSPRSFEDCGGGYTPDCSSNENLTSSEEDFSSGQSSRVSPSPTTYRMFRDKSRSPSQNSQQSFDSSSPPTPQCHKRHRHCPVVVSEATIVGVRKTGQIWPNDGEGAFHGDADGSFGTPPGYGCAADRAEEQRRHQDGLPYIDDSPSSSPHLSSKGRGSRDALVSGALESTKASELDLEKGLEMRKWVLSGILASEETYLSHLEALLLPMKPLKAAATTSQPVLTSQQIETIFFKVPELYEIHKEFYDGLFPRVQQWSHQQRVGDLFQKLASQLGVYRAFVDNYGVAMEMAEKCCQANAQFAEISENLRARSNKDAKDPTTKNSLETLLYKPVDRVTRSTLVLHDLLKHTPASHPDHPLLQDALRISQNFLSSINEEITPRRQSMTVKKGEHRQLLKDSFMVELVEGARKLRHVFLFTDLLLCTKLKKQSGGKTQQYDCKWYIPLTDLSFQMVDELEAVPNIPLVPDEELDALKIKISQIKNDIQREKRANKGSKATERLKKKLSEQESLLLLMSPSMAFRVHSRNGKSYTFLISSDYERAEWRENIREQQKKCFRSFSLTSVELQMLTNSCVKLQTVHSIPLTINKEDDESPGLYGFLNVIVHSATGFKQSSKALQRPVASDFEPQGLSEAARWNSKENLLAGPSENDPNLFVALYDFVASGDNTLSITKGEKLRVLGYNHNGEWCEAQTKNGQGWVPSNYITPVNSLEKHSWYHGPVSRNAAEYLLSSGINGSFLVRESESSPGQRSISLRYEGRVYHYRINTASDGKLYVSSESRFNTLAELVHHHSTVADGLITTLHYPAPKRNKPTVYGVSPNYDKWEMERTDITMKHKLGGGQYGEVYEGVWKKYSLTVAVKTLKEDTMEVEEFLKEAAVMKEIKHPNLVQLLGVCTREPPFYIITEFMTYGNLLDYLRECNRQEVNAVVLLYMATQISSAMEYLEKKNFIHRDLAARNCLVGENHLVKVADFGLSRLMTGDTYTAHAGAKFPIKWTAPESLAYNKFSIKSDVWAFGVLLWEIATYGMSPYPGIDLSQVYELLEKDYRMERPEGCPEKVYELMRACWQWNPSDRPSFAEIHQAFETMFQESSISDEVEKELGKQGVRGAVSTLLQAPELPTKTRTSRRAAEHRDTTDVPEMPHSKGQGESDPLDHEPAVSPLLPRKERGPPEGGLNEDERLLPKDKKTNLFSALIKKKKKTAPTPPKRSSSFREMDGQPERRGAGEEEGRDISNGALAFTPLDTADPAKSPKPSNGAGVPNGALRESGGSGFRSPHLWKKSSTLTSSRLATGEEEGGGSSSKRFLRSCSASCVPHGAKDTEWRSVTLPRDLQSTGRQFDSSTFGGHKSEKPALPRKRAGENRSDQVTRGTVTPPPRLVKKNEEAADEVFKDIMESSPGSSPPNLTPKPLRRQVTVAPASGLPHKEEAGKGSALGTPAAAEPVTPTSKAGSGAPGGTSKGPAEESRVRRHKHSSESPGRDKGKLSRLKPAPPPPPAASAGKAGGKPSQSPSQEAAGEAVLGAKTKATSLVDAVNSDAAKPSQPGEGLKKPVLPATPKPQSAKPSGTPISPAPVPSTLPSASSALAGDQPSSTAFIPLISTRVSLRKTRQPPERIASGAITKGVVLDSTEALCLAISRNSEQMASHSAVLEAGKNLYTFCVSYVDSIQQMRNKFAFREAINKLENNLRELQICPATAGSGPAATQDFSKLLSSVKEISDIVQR

Row | SMILES | CATDS (PIK3CA) | CATDS (DAPK3) | CATDS (PAK6) | CATDS (JAK2) | CATDS (PIK3CD) | CATDS (BCR) | CATDS (CDK6) | CATDS (NEK9) | CATDS (PIM2) | CATDS (IKBKE) | CATDS (PKM) | CATDS (ADCK3) | CATDS (MAP3K2) | CATDS (EPHB2) | CATDS (IRAK4) | CATDS (PAK4)
1 | Nc1ncnc2[nH]c(-c3ccccc3)nc12 [AH5015_KCGS] | 0 | 0 | 0 | 0 | 0.05532 | 0.0268 | 0 | 0 | 0 | 0 | 0 | 0 | 0 | 0.02863 | 0 | 0
2 | CCN1CCN(Cc2ccc(Nc3ncc(F)c(-c4cc(F)c5nc(C)n(C(C)C)c5c4)n3)nc2)CC1 [Abemaciclib] | 0 | 0 | 0 | 0 | 0 | 0 | – | 0 | 0 | 0 | 0 | 0 | 0 | 0 | 0 | 0
3 | CN(C)C/C=C/C(=O)Nc1cc2c(Nc3ccc(F)c(Cl)c3)ncnc2cc1O[C@H]1CCOC1 [Afatinib] | 0 | – | – | – | – | 0 | – | – | 0 | – | – | – | – | 0 | – | 0
4 | CCc1cc2c(cc1N1CCC(N3CCOCC3)CC1)C(C)(C)c1[nH]c3cc(C#N)ccc3c1C2=O [Alectinib] | 0 | 0 | 0 | 0 | 0 | 0 | 0 | 0 | 0 | 0 | 0 | 0 | 0 | 0 | 0 | 0
5 | N#CC1(c2ccc(NC(=O)c3cccnc3NCc3ccncc3)cc2)CCCC1 [Apatinib] | 0 | 0 | 0 | 0 | 0 | 0 | 0 | 0 | 0 | 0 | 0 | 0 | 0 | 0 | 0 | 0

Reference: publication PMC11062922 (Nature Chemical Biology, 2023)
